Results as given in US10857246B2, “Nuclear imaging and radiotherapeutics agents targeting carbonic anhydrase IX and uses thereof” (THE JOHNS HOPKINS UNIVERSITY, priority 2015, dated 2020).
Several values for one entry are separate records, joined by “and”; a condition that tells them apart may be missing. Identical values can stand only once.

System: CAIX-expressing SK-RC-52 tumors
Test: Biodistribution in mice bearing SK-RC-52 xenografts
Assay type: in vivo
Conditions: for Biodistribution Bladder / Biodistribution Blood / Biodistribution Brain / Biodistribution Fat / Biodistribution Heart / Biodistribution Kidney / Biodistribution Liver / Biodistribution Lung / Biodistribution Muscle / Biodistribution Pancreas / Biodistribution Small intestine / Biodistribution Spleen / Biodistribution Stomach / Biodistribution Tumor / Tumor/Kidney ratio / Tumor/Blood ratio / Tumor/Muscle ratio: 740 kBq i.v.
Protocol: Animal experiments were performed in accordance with protocols approved by the Johns Hopkins Animal Care and Use Committee (ACUC). Six-week-old female NOD/SCID mice were purchased from the Animal Resource Core of the Sidney Kimmel Comprehensive Cancer Center of Johns Hopkins and were subcutaneously injected in the lower left flank or upper right flank with 1×10^6 SK-RC-52 cells in RPMI 1640 GlutaMAX™ media (Life Technologies, Frederick, Md.) supplemented with 1% fetal bovine serum (FBS). Mice were monitored for tumor size and used for SPECT/CT imaging when the size of the tumor reached 100 mm^3.
Mice bearing SK-RC-52 xenografts at lower left flank were injected intravenously with 740 kBq (20 μCi) of [^111In]XYIMSR-01, or [^177Lu]XYIMSR-01 in 200 μL of PBS. For competitive blocking, same tumor bearing mice were injected with 740 kBq (20 μCi) of [^111In]XYIMSR-01 and 200 nmole of 8 in 200 μL of PBS. At 1 h, 4 h, 8 h, 24 h and 48 h post-injection, mice were sacrificed by cervical dislocation and the blood was immediately collected by cardiac puncture. Heart, lungs, pancreas, spleen, fat, brain, muscle, small intestines, liver, stomach, kidney, urinary bladder, and tumor were collected. Each organ was weighed and the tissue radioactivity was measured with an automated gamma counter (1282 Compugamma CS, Pharmacia/LKBNuclear, Inc., Mt. Waverly, Vic. Australia). The percentage of injected dose per gram of tissue (% ID/g) was calculated by comparison with samples of a standard dilution of the initial dose. All measurements were corrected for radioactive decay.
Data were expressed as mean±standard deviation (SD). Prism software (GraphPAD, San Diego, Calif.) was used to determine statistical significance. Statistical significance was calculated using a paired t test. P-values <0.0001 were considered significant.
Mice bearing SK-RC-52 xenografts within the lower left flank were injected intravenously with 740 kBq (20 μCi) of [Al^18F]XYIMSR-04 in 200 μL of PBS. At specific 1 hour time point mentioned in the paper, mice (n=5) were sacrificed by cervical dislocation and the blood was immediately collected by cardiac puncture. Heart, lungs, pancreas, spleen, fat, brain, muscle, small intestines, liver, bone, stomach, kidney, urinary bladder, and tumor were collected. Each organ was weighed and the tissue radioactivity was measured with an automated gamma counter (1282 Compugamma CS, Pharmacia/LKBNuclear, Inc., Mt. Waverly, Vic. Australia). The percentage of injected dose per gram of tissue (% ID/g) was calculated by comparison with samples of a standard dilution of the initial dose. All measurements were corrected for radioactive decay. Data were expressed as mean±standard deviation (SD). Prism software (GraphPAD, San Diego, Calif.) was used to determine statistical significance. Statistical significance was calculated using a paired t test. P-values <0.0001 were considered significant.
Mice bearing SK-RC-52 xenografts within the upper right flank were injected intravenously with 740 kBq (20 μCi) of [^64Cu]XYIMSR-06 in 200 μL of PBS. For in vivo competition (binding specificity) studies, tumor-bearing mice were injected with 740 kBq (20 μCi) of [^64Cu]XYIMSR-06 and 200 nmole of 8 in 200 μL of PBS concurrently. At specific times after injection (1 h, 4 h, 8 h and 24 h), mice (n=5) were sacrificed by cervical dislocation with blood immediately collected by cardiac puncture. Heart, lungs, pancreas, spleen, fat, brain, muscle, small intestines, liver, stomach, kidney, urinary bladder, and tumor were also collected. Each organ was weighed and the tissue radioactivity was measured with an automated gamma counter (1282 Compugamma CS, Pharmacia/LKBNuclear, Inc., Mt. Waverly, Vic. Australia). The percentage of injected dose per gram of tissue (% ID/g) was calculated by comparison with samples of a standard dilution of the initial dose. All measurements were corrected for radioactive decay. Data were expressed as mean±standard deviation (SD). […]

CC(CCC(=O)N[C@@H](CC(=O)N[C@@H](CC(=O)N[C@@H](CCCCn1cc(CCCC(=O)Nc2nnc(S(N)(=O)=O)s2)nn1)C(=O)NCCOCCOCCNC(=O)CN1CCN(CC(=O)[O-])CCN(CC(=O)[O-])CCN(CC(=O)[O-])CC1)C(=O)O)C(=O)O)(c1ccc(O)cc1)c1ccc(O)cc1.[111In+3] [[^111In]XYIMSR-01]
Biodistribution Bladder (1 h post-injection): 4.90 % ID/g
Biodistribution Blood (1 h post-injection): 1.34 % ID/g
Biodistribution Brain (1 h post-injection): 1.23 % ID/g
Biodistribution Fat (1 h post-injection): 1.03 % ID/g
Biodistribution Heart (1 h post-injection): 5.98 % ID/g
Biodistribution Kidney (1 h post-injection): 71.26 % ID/g
Biodistribution Liver (1 h post-injection): 8.36 % ID/g
Biodistribution Lung (1 h post-injection): 45.85 % ID/g
Biodistribution Muscle (1 h post-injection): 2.34 % ID/g
Biodistribution Pancreas (1 h post-injection): 3.81 % ID/g
Biodistribution Small intestine (1 h post-injection): 9.37 % ID/g
Biodistribution Spleen (1 h post-injection): 0.52 % ID/g
Biodistribution Stomach (1 h post-injection): 16.71 % ID/g
Biodistribution Tumor (1 h post-injection): 26 % ID/g and 26.01 % ID/g
Tumor/Kidney ratio (1 h post-injection): 0.36
Biodistribution Bladder (4 h post-injection): 2.68 % ID/g
Biodistribution Blood (4 h post-injection): 0.65 % ID/g
Biodistribution Brain (4 h post-injection): 0.45 % ID/g
Biodistribution Fat (4 h post-injection): 0.42 % ID/g
Biodistribution Heart (4 h post-injection): 2.91 % ID/g
Biodistribution Kidney (4 h post-injection): 41.52 % ID/g
Biodistribution Liver (4 h post-injection): 4.00 % ID/g
Biodistribution Lung (4 h post-injection): 17.85 % ID/g
Biodistribution Muscle (4 h post-injection): 1.01 % ID/g
Biodistribution Pancreas (4 h post-injection): 1.54 % ID/g
Biodistribution Small intestine (4 h post-injection): 4.27 % ID/g
Biodistribution Spleen (4 h post-injection): 0.51 % ID/g
Biodistribution Stomach (4 h post-injection): 7.91 % ID/g
Biodistribution Tumor (4 h post-injection): 20.83 % ID/g
Tumor/Blood ratio (4 h post-injection): 31.9
Tumor/Kidney ratio (4 h post-injection): 0.50
Tumor/Muscle ratio (4 h post-injection): 21.4
Biodistribution Bladder (8 h post-injection): 2.28 % ID/g
Biodistribution Blood (8 h post-injection): 0.48 % ID/g
Biodistribution Brain (8 h post-injection): 0.59 % ID/g
Biodistribution Fat (8 h post-injection): 0.45 % ID/g
Biodistribution Heart (8 h post-injection): 2.61 % ID/g
Biodistribution Kidney (8 h post-injection): 28.79 % ID/g
Biodistribution Liver (8 h post-injection): 3.65 % ID/g
Biodistribution Lung (8 h post-injection): 17.39 % ID/g
Biodistribution Muscle (8 h post-injection): 1.09 % ID/g
Biodistribution Pancreas (8 h post-injection): 1.61 % ID/g
Biodistribution Small intestine (8 h post-injection): 4.31 % ID/g
Biodistribution Spleen (8 h post-injection): 0.64 % ID/g
Biodistribution Stomach (8 h post-injection): 8.74 % ID/g
Biodistribution Tumor (8 h post-injection): 34.0 % ID/g
Tumor/Blood ratio (8 h post-injection): 77.0
Tumor/Kidney ratio (8 h post-injection): 3.1
Tumor/Muscle ratio (8 h post-injection): 34.2
All other tumor/organ ratios (24 h): ≥ 10
Biodistribution Bladder (24 h + block (200 nmole of 8)): 0.20 % ID/g
Biodistribution Blood (24 h + block (200 nmole of 8)): 0.03 % ID/g
Biodistribution Brain (24 h + block (200 nmole of 8)): 0.03 % ID/g
Biodistribution Fat (24 h + block (200 nmole of 8)): 0.02 % ID/g
Biodistribution Heart (24 h + block (200 nmole of 8)): 0.04 % ID/g
Biodistribution Kidney (24 h + block (200 nmole of 8)): 0.68 % ID/g
Biodistribution Liver (24 h + block (200 nmole of 8)): 0.10 % ID/g
Biodistribution Lung (24 h + block (200 nmole of 8)): 0.12 % ID/g
Biodistribution Muscle (24 h + block (200 nmole of 8)): 0.02 % ID/g
Biodistribution Pancreas (24 h + block (200 nmole of 8)): 0.03 % ID/g
Biodistribution Small intestine (24 h + block (200 nmole of 8)): 0.08 % ID/g
Biodistribution Spleen (24 h + block (200 nmole of 8)): 0.08 % ID/g
Biodistribution Stomach (24 h + block (200 nmole of 8)): 0.14 % ID/g
Biodistribution Tumor (24 h + block (200 nmole of 8)): 1.41 % ID/g
Tumor/Blood ratio (24 h + block (200 nmole of 8)): 45.2
Tumor/Kidney ratio (24 h + block (200 nmole of 8)): 2.1
Tumor/Muscle ratio (24 h + block (200 nmole of 8)): 91.4
Uptake to tumors with simultaneously injected non-radioactive competitor 8 (24 h and 48 h post injection): ~1%
Biodistribution Bladder (24 h post-injection): 0.74 % ID/g
Biodistribution Blood (24 h post-injection): 0.15 % ID/g
Biodistribution Brain (24 h post-injection): 0.71 % ID/g
Biodistribution Fat (24 h post-injection): 0.28 % ID/g
Biodistribution Heart (24 h post-injection): 1.16 % ID/g
Biodistribution Kidney (24 h post-injection): 15.29 % ID/g
Biodistribution Liver (24 h post-injection): 3.02 % ID/g
Biodistribution Lung (24 h post-injection): 11.01 % ID/g
Biodistribution Muscle (24 h post-injection): 0.35 % ID/g
Biodistribution Pancreas (24 h post-injection): 0.69 % ID/g
Biodistribution Small intestine (24 h post-injection): 2.11 % ID/g
Biodistribution Spleen (24 h post-injection): 0.69 % ID/g
Biodistribution Stomach (24 h post-injection): 3.31 % ID/g
Biodistribution Tumor (24 h post-injection): 25.62 % ID/g
Biodistribution Bladder (48 h + block (200 nmole of 8)): 0.14 % ID/g
Biodistribution Blood (48 h + block (200 nmole of 8)): 0.03 % ID/g
Biodistribution Brain (48 h + block (200 nmole of 8)): 0.03 % ID/g
Biodistribution Fat (48 h + block (200 nmole of 8)): 0.03 % ID/g
Biodistribution Heart (48 h + block (200 nmole of 8)): 0.04 % ID/g
Biodistribution Kidney (48 h + block (200 nmole of 8)): 0.45 % ID/g
Biodistribution Liver (48 h + block (200 nmole of 8)): 0.13 % ID/g
Biodistribution Lung (48 h + block (200 nmole of 8)): 0.09 % ID/g
Biodistribution Muscle (48 h + block (200 nmole of 8)): 0.02 % ID/g
Biodistribution Pancreas (48 h + block (200 nmole of 8)): 0.03 % ID/g
Biodistribution Small intestine (48 h + block (200 nmole of 8)): 0.08 % ID/g
Biodistribution Spleen (48 h + block (200 nmole of 8)): 0.11 % ID/g
Biodistribution Stomach (48 h + block (200 nmole of 8)): 0.14 % ID/g
Biodistribution Tumor (48 h + block (200 nmole of 8)): 1.22 % ID/g
Tumor/Blood ratio (48 h + block (200 nmole of 8)): 45.4
Tumor/Kidney ratio (48 h + block (200 nmole of 8)): 2.7
Tumor/Muscle ratio (48 h + block (200 nmole of 8)): 75.1
Biodistribution Bladder (48 h post-injection): 0.38 % ID/g
Biodistribution Blood (48 h post-injection): 0.06 % ID/g
Biodistribution Brain (48 h post-injection): 0.41 % ID/g
Biodistribution Fat (48 h post-injection): 0.25 % ID/g
Biodistribution Heart (48 h post-injection): 0.84 % ID/g
Biodistribution Kidney (48 h post-injection): 8.78 % ID/g
Biodistribution Liver (48 h post-injection): 1.65 % ID/g
Biodistribution Lung (48 h post-injection): 9.22 % ID/g
Biodistribution Muscle (48 h post-injection): 0.39 % ID/g
Biodistribution Pancreas (48 h post-injection): 0.59 % ID/g
Biodistribution Small intestine (48 h post-injection): 1.22 % ID/g
Biodistribution Spleen (48 h post-injection): 0.67 % ID/g
Biodistribution Stomach (48 h post-injection): 1.82 % ID/g
Biodistribution Tumor (48 h post-injection): 13.92 % ID/g
Tumor/Blood ratio (48 h post-injection): 212.0
Tumor/Kidney ratio (48 h post-injection): 1.5
Tumor/Muscle ratio (48 h post-injection): 52.0
